Measurements from PMC7180617, “Biological Evaluation of 3-Benzylidenechromanones and Their Spiropyrazolines-Based Analogues” (Molecules, 2020).
Values joined by “and” are separate entries in the source; they are usually repeats but may differ in a detail not shown here. Equal entries are not always repeated.

Assays:
[1] = test system: plasmid DNA (pcDNAHisC); assay: Digestion of plasmid DNA with BamHI restriction nuclease (DNA-cleavage protection); type: biochemical; settings: 10 µM, overnight 37 °C, then BamHI 3 h, agarose gel
Protocol: This cytotoxicity was tested with regard to its effect on the cell cycle and the ability to modify DNA. In addition to the compounds shown in Table 4, two highly-cytotoxic compounds (11 and 12) were also tested. Their structure and biological activity were described in a previous article. […] To test this hypothesis, plasmid DNA was incubated with the test compounds and subsequently digested with BamH1 endonuclease. […] This conclusion is supported by the presence of the circular form of plasmid DNA after digestion with BamH1.
First, 0.5 µg of plasmid DNA (pcDNAHisC, total length 5.5 kbp) containing a unique BamHI restriction site was dissolved in a 1x BamHI reaction buffer and incubated overnight at 37 °C with the test compounds or daunorubicin, which was used as a positive control. The concentration of the test compounds and daunorubicin in the samples was 10 µM. The final concentration of DMSO in all samples was 10%. In the next step, the reaction mixtures were digested with BamHI restriction endonuclease (2 U/µL) for 3 h at 37 °C. Total reaction volume was 10 µL. Products of the reaction were separated in the 1% agarose gel in TBE buffer. The gel was stained with ethidium bromide and DNA fragments were visualized under a UV lamp (GBox, Syngene, Frederick, MD, USA).

[2] = Lipophilicity (logP) by RP-TLC; settings: RP-18 F254S TLC plates
Description: Lipophilicity is one of the most important physicochemical properties in pharmaceutical research. It can be considered a key determinant of the pharmacokinetic properties of a drug. It is commonly measured by the partition coefficient between water and n-octanol, being expressed as logP [14]. […] Knowledge of the partition coefficient is valuable: it is frequently used in structure–activity relationship (SAR) and quantitative structure–activity relationship (QSAR) studies. The experimental lipophilicity of the synthesized compounds, viz. benzylideneflavanones, benzylidenechromanones and spiropyrazolines, was determined using RP-TLC. […] It is important to examine the relationship between structure of the compound and its lipophilicity and cytotoxicity.
The RP-TLC experiments were performed on TLC plates (5 × 10 cm) RP-18 F254S (Merck, Darmstadt, Germany). The synthesized compounds were dissolved in N,N-dimethylformamide DMF (2 mg/mL). […] A DMF-water solvent system was used as mobile phase. […] All experiments were performed at room temperature. The logP parameter was calculated using the equation from the calibration curve.

[3] = test system: HL-60 cells; assay: Cell cycle analysis by flow cytometry (propidium iodide); type: cell-based, human; settings: for cell cycle, G1, mean / cell cycle, G2/M, mean / cell cycle, S, mean: mean of n=2; for cell cycle distribution, G1 / cell cycle distribution, G2 / cell cycle distribution, G2/M: HL-60, 20 h, mean ± SD, n = 2
Protocol: The next stage examined the effects of the selected compounds on cell cycle progression in HL-60 leukemia cells. […] One million HL-60 (subline CCL 240; cell type: promyeloblast) cells in 3 mL of RPMI 1640 supplemented with 20% FBS were seeded on 6-well plate. […] Fixed cells were stored in −20 °C for 2–3 days. Before analysis, cells were centrifuged (10 min, 1500 rpm, 4 °C) and washed twice with cold PBS. After the second wash, the cells were suspended in 1mL of PBS containing 100 μg of RNase A and incubated in 37 °C for 10 min. Next, 5 μL of solution of propidium iodide (1 mg/mL) was added to each sample and incubated in dark for 30 min at RT. Stained cells were analyzed by flow cytometry (FACS Calibur, BD Biosciences, San Jose, CA, USA). Data from 10,000 gated cells were collected using CellQuestPro software (Ver 6.0, Becton Dickinson) and cell cycle analysis was performed with ModFit LT software (Ver 3.2, Verity Software House, Topsham, ME, USA).

[4] = test system: HL-60 cells; design: method as in PMID 30513785; settings: MTT; cited from earlier work
[5] = test system: NALM-6 cells; design: method as in PMID 30513785; settings: MTT; cited from earlier work
[6] = test system: WM-115 cells; design: method as in PMID 30513785; settings: MTT; cited from earlier work
[7] = Figure S3, HL-60, 0.5 × IC50 (µM: quercetin 29, 1 1.5, 7 18, 10 4.7, 11 4.5, 12 6)
[8] = Figure S3, HL-60, 0.5 × IC50, each of two repetitions
[9] = Figure S3, HL-60, 1 × IC50 (µM: quercetin 58, 1 3, 7 35, 10 9.4, 11 9, 12 12)
[10] = Figure S3, HL-60, 1 × IC50, each of two repetitions
[11] = 0.5 × IC50 (µM: quercetin 29, 2 1.5, 7 18, 12 6, 11 4.5, 10 4.7)
[12] = 1 × IC50 (µM: quercetin 58, 2 3, 7 35, 12 12, 11 9, 10 9.4)

COc1cccc2c1C(=O)c1c(O)c3c(c(O)c1C2=O)C[C@@](O)(C(C)=O)C[C@@H]3O[C@H]1C[C@H](N)[C@H](O)[C@H](C)O1 [daunorubicin]
inhibition of BamHI digestion of plasmid DNA (in words) [1]: prevented linearization of DNA

CCN(CC)c1ccc(/C=C2\COc3ccccc3C2=O)cc1 [Compound 12, (E)-3-(4-N,N-diethylaminobenzylidene)chroman-4-one]
chromatographic logP [2]: 3.43 | cell cycle, G1, mean [3, 7]: 19,26% | cell cycle, G2/M, mean [3, 7]: 52,38% | cell cycle, S, mean [3, 7]: 28,37% | cell cycle, G1, single repetitions [3, 8]: 17,44% and 21,08% | cell cycle, G2/M, single repetitions [3, 8]: 56,79% and 47,96% | cell cycle, S, single repetitions [3, 8]: 22,13% and 34,60% | cell cycle, G1, mean ([3]; Figure S3, HL-60, 1 × IC50 (µM in parenthesis: quercetin 58, 1 3, 7 35, 10 9.4, 11 9, 12 12)): 19,53% | cell cycle, G2/M, mean [3, 9]: 52,44% | cell cycle, S, mean [3, 9]: 28,03% | cell cycle, G2/M, single repetitions [3, 10]: 44,70% and 60,18% | cell cycle, S, single repetitions [3, 10]: 27,06% and 29,00% | cell cycle distribution, G1 [3, 11]: 19.3 ± 2.6% | cell cycle distribution, G2 [3, 11]: 28.4 ± 8.8% | cell cycle distribution, G2/M [3, 11]: 52.4 ± 6.2% | cell cycle distribution, G1 [3, 12]: 19.5 ± 12.3% | cell cycle distribution, G2 [3, 12]: 28.0 ± 1.4% | cell cycle distribution, G2/M [3, 12]: 52.4 ± 10.9% | cells arrested in G2/M phase ([3]; HL-60, concentrations of IC50 and 0.5 × IC50): 50–60% | IC50 [4]: 11.8 ± 1.97 µM | IC50 [5]: 8.69 ± 0.4 µM | IC50 [6]: 18.1 ± 3.14 µM
